Laboratory results reported in US20050043315A1, “Aminopyrimidine compounds, processes for their preparation and pharmaceutical compositions containing them” (priority 2002, published 2005).

Row | melting point | SMILES
1 | 258 to 260 °C | CC(C)n1nc(-c2c(N)nc(N)nc2-c2ccccc2)ccc1=O [Example 105, 6-(2,4-diamino-6-phenyl-5-pyrimidinyl)-2-isopropyl-3(2H)-pyridazinone]
2 | 268 to 270 °C | CNc1nc(N)nc(-c2ccccc2)c1-c1ccc(=O)n(C(C)C)n1 [Example 106, 6-[2-Amino-4-(methylamino)-6-phenyl-5-pyrimidinyl]-2-isopropyl-3(2H)-pyridazinone]
3 | 293 to 296 °C | CC(C)n1nc(-c2c(-c3ccccc3)nc(N)nc2N(C)C)ccc1=O [Example 107, 6-[2-Amino-4-(dimethylamino)-6-phenyl-5-pyrimidinyl]-2-isopropyl-3(2H)-pyridazinone]
4 | 208 to 209 °C | CCNc1nc(N)nc(-c2ccccc2)c1-c1ccc(=O)n(C(C)C)n1 [Example 108, 6-[2-Amino-4-(ethylamino)-6-phenyl-5-pyrimidinyl]-2-isopropyl-3(2H)-pyridazinone]
5 | 234 to 236 °C | CC(C)Nc1nc(N)nc(-c2ccccc2)c1-c1ccc(=O)n(C(C)C)n1 [Example 110, 6-[2-Amino-4-(isopropylamino)-6-phenyl-5-pyrimidinyl]-2-isopropyl-3(2H)-pyridazinone]
6 | 202 to 204 °C | CC(C)n1nc(-c2c(NC(C)(C)C)nc(N)nc2-c2ccccc2)ccc1=O [Example 113, 6-[2-Amino-4-(tert-butylamino)-6-phenyl-5-pyrimidinyl]-2-isopropyl-3(2H)-pyridazinone]
7 | 221.5 to 223.5 °C | CC(C)n1nc(-c2c(NCCO)nc(N)nc2-c2ccccc2)ccc1=O [Example 114, 6-{2-amino-4-[(2-hydroxyethyl)amino]-6-phenyl-5-pyrimidinyl}-2-isopropyl-3(2H)-pyridazinone]
8 | 194 to 197 °C | CC(C)n1nc(-c2c(NCCN)nc(N)nc2-c2ccccc2)ccc1=O [Example 116, 6-{2-Amino-4-[(2-aminoethyl)amino]-6-phenyl-5-pyrimidinyl}-2-isopropyl-3(2H)-pyridazinone]
9 | 215 to 216.5 °C | CC(C)n1nc(-c2c(NCc3cccnc3)nc(N)nc2-c2ccccc2)ccc1=O [Example 122, 6-{2-Amino-4-phenyl-6-[(3-pyridinylmethyl)amino]-5-pyrimidinyl}-2-isopropyl-3(2H)-pyridazinone]
10 | 221.5 to 222.5 °C | CC(C)n1nc(-c2c(NCc3ccncc3)nc(N)nc2-c2ccccc2)ccc1=O [Example 123, 6-{2-Amino-4-phenyl-6-[(4-pyridinylmethyl)amino]-5-pyrimidinyl}-2-isopropyl-3(2H)-pyridazinone]
11 | > 300 °C | CC(C)n1nc(-c2c(-c3ccccc3)nc(N)nc2N2CCCC2)ccc1=O [Example 125, 6-[2-Amino-4-phenyl-6-(1-pyrrolidinyl)-5-pyrimidinyl]-2-isopropyl-3(2H)-pyridazinone]
12 | 221 to 223 °C | CC(C)n1nc(-c2c(-c3ccccc3)nc(N)nc2N2CCCCC2)ccc1=O [Example 126, 6-[2-Amino-4-phenyl-6-(1-piperidinyl)-5-pyrimidinyl]-2-isopropyl-3(2H)-pyridazinone]
13 | 251 to 253 °C | CC(C)n1nc(-c2c(-c3ccccc3)nc(N)nc2N2CCOCC2)ccc1=O [Example 127, 6-[2-Amino-4-(4-morpholinyl)-6-phenyl-5-pyrimidinyl]-2-isopropyl-3(2H)-pyridazinone]
14 | 254 to 256 °C | CC(C)n1nc(-c2c(-c3ccccc3)nc(N)nc2N2CCNCC2)ccc1=O [Example 128, 6-[2-amino-4-phenyl-6-(1-piperazinyl)-5-pyrimidinyl]-2-isopropyl-3(2H)-pyridazinone]
15 | 213 to 215 °C | CC(C)n1nc(-c2c(-c3ccccc3)nc(N)nc2N2CCN(C)CC2)ccc1=O [Example 129, 6-[2-Amino-4-(4-methyl-1-piperazinyl)-6-phenyl-5-pyrimidinyl]-2-isopropyl-3(2H)-pyridazinone]
16 | 255 to 258 °C | CC(C)n1nc(-c2c(-c3ccccc3)nc(N)nc2-n2ccnc2)ccc1=O [Example 130, 6-[2-amino-4-(1H-imidazol-1-yl)-6-phenyl-5-pyrimidinyl]-2-isopropyl-3(2H)-pyridazinone]
17 | 266 to 268 °C | CC(C)n1nc(-c2c(-c3ccccc3)nc(N)nc2-n2cncn2)ccc1=O [Example 131, 6-[2-Amino-4-phenyl-6-(1H-1,2,4-triazol-1-yl)-5-pyrimidinyl]-2-isopropyl-3(2H)-pyridazinone]
18 | 242 to 244 °C | CC(C)n1nc(-c2c(-c3ccccc3)nc(N)nc2-n2cnc3ccccc32)ccc1=O [Example 132, 6-[2-Amino-4-(1H-benzimidazol-1-yl)-6-phenyl-5-pyrimidinyl]-2-isopropyl-3(2H)-pyridazinone]
19 | 163 to 164 °C | CC(C)n1nc(-c2c(Nc3ccccn3)nc(N)nc2-c2ccccc2)ccc1=O [Example 135, 6-[2-Amino-4-phenyl-6-(2-pyridinylamino)-5-pyrimidinyl]-2-isopropyl-3(2H)-pyridazinone]
20 | 272 to 274.5 °C | CC(C)n1nc(-c2c(NC(=N)N)nc(N)nc2-c2ccccc2)ccc1=O [Example 137, N-[2-amino-5-(1-isopropyl-6-oxo-1,6-dihydro-3-pyridazinyl)-6-phenyl-4-pyrimidinyl]guanidine]

More lines, now with the values behind:

Row | SMILES | melting point
21 | CC(C)n1nc(-c2c(Oc3ccccc3)nc(N)nc2-c2ccccc2)ccc1=O [Example 98, 6-(2-Amino-4-phenoxy-6-phenyl-5-pyrimidinyl)-2-isopropyl-3(2H)-pyridazinone] | 218 to 221 °C
22 | CC(C)n1nc(-c2c(OCC(N)=O)nc(N)nc2-c2ccccc2)ccc1=O [Example 99, 2-{[2-amino-5-(1-isopropyl-6-oxo-1,6-dihydro-3-pyridazinyl)-6-phenyl-4-pyrimidinyl]oxy}acetamide] | 257 to 261 °C
23 | CC(C)n1nc(-c2c(OCC(=O)O)nc(N)nc2-c2ccccc2)ccc1=O [Example 100, {[2-amino-5-(1-isopropyl-6-oxo-1,6-dihydro-3-pyridazinyl)-6-phenyl-4-pyrimidinyl]oxy}acetic acid] | 215 to 217 °C
24 | CNC(=O)COc1nc(N)nc(-c2ccccc2)c1-c1ccc(=O)n(C(C)C)n1 [Example 101, 2-{[2-amino-5-(1-isopropyl-6-oxo-1,6-dihydro-3-pyridazinyl)-6-phenyl-4-pyrimidinyl]oxy}-N-methylacetamide] | 204 to 205.5 °C
25 | CC(C)n1nc(-c2c(OCC(=O)N(C)C)nc(N)nc2-c2ccccc2)ccc1=O [Example 102, 2-{[2-Amino-5-(1-isopropyl-6-oxo-1,6-dihydro-3-pyridazinyl)-6-phenyl-4-pyrimidinyl]oxy}-N,N-dimethylacetamide] | 133 to 135.5 °C
26 | CC(C)n1nc(-c2c(OCC(=O)NC3CC3)nc(N)nc2-c2ccccc2)ccc1=O [Example 103, 2-{[2-Amino-5-(1-isopropyl-6-oxo-1,6-dihydro-3-pyridazinyl)-6-phenyl-4-pyrimidinyl]oxy}-N-cyclopropylacetamide] | 87 to 92 °C
27 | CC(C)n1nc(-c2c(OCCN)nc(N)nc2-c2ccccc2)ccc1=O [Example 104, 6-[2-amino-4-(2-aminoethoxy)-6-phenyl-5-pyrimidinyl]-2-isopropyl-3(2H)-pyridazinone] | 213 to 216 °C
28 | CCCNc1nc(N)nc(-c2ccccc2)c1-c1ccc(=O)n(C(C)C)n1 [Example 109, 6-[2-Amino-4-phenyl-6-(propylamino)-5-pyrimidinyl]-2-isopropyl-3(2H)-pyridazinone] | 209 to 212 °C
29 | C=CCNc1nc(N)nc(-c2ccccc2)c1-c1ccc(=O)n(C(C)C)n1 [Example 111, 6-[4-(Allylamino)-2-amino-6-phenyl-5-pyrimidinyl]-2-isopropyl-3(2H)-pyridazinone] | 191.5 to 192.5 °C
30 | CC(C)n1nc(-c2c(NC3CC3)nc(N)nc2-c2ccccc2)ccc1=O [Example 112, 6-[2-Amino-4-(cyclopropylamino)-6-phenyl-5-pyrimidinyl]-2-isopropyl-3(2H)-pyridazinone] | 237 to 239 °C
31 | COCCNc1nc(N)nc(-c2ccccc2)c1-c1ccc(=O)n(C(C)C)n1 [Example 115, 6-{2-amino-4-[(2-methoxyethyl)amino]-6-phenyl-5-pyrimidinyl}-2-isopropyl-3(2H)-pyridazinone] | 168 to 170 °C
32 | CC(C)n1nc(-c2c(NCCN(C)C)nc(N)nc2-c2ccccc2)ccc1=O [Example 117, 6-(2-Amino-4-{[2-(dimethylamino)ethyl]amino}-6-phenyl-5-pyrimidinyl)-2-isopropyl-3(2H)-pyridazinone] | 164 to 165.5 °C
33 | CC(C)n1nc(-c2c(NCC(N)=O)nc(N)nc2-c2ccccc2)ccc1=O [Example 118, 2-{(2-amino-5-(1-isopropyl-6-oxo-1,6-dihydro-3-pyridazinyl)-6-phenyl-4-pyrimidinyl]amino}acetamide] | 235 to 237.5 °C
34 | CC(C)n1nc(-c2c(-c3ccccc3)nc(N)nc2N(C)Cc2ccccc2)ccc1=O [Example 120, 6-{2-amino-4-[benzyl(methyl)amino]-6-phenyl-5-pyrimidinyl}-2-isopropyl-3(2H)-pyridazinone] | 167 to 168 °C
35 | CC(C)n1nc(-c2c(NCc3ccccn3)nc(N)nc2-c2ccccc2)ccc1=O [Example 121, 6-{2-Amino-4-phenyl-6-[(2-pyridinylmethyl)amino]-5-pyrimidinyl}-2-isopropyl-3(2H)-pyridazinone] | 196 to 198 °C
36 | CC(C)n1nc(-c2c(NCc3ccco3)nc(N)nc2-c2ccccc2)ccc1=O [Example 124, 6-{2-Amino-4-[(2-furylmethyl)amino]-6-phenyl-5-pyrimidinyl}-2-isopropyl-3(2H)-pyridazinone] | 213 to 214 °C
37 | CC(C)n1nc(-c2c(Nc3ccccc3)nc(N)nc2-c2ccccc2)ccc1=O [Example 133, 6-(2-amino-4-anilino-6-phenyl-5-pyrimidinyl)-2-isopropyl-3(2H)-pyridazinone] | 240 to 242 °C
38 | Cc1nc(Nc2nc(N)nc(-c3ccccc3)c2-c2ccc(=O)n(C(C)C)n2)sc1C [Example 134, 6-{2-Amino-4-[(4,5-dimethyl-1,3-thiazol-2-yl)amino]-6-phenyl-5-pyrimidinyl}-2-isopropyl-3(2H)-pyridazinone] | 256 to 257.5 °C
